Assay results published in paper PMC13357423 (Frontiers in Microbiology, 2026).
Converted amounts (≈) assume the structure as drawn. “Also recorded” adds a separate entry of the source. Like-named read-outs stand apart in the source and are kept apart here.

Legend:
[1] = test system: regrowth TKA isolates (Mtb H37Rv); experiment: microbe, parasite or virus in culture; format: cell-based, Mycobacterium tuberculosis; settings: for MIC: Mycobacterium tuberculosis
Mtb H37Rv [2] = experiment: Dose response time kill assays (TKA), CFU enumeration; format: cell-based, Mycobacterium tuberculosis
[3] = Effect of tyloxapol on TBAJ-587 recovery in ST broth without bacteria; format: physicochemical; settings: ST broth with vs without tyloxapol, no bacteria, polystyrene flasks, 28 days
Procedure: A low (0.16 mg/L) and a high concentration (1.6 mg/L) were tested and samples taken and quantified at 0, 1, 10 and 28 days after compound addition. Parallel conditions with propranolol (2 μM and 0.2 μm) were included as a drug control; two time-points were sampled for quantification at days 0 and 28 after compound addition. All 648 samples were measured in technical duplicates and verapamil was used as internal standard.

Mtb H37Rv [4] = experiment: microbe, parasite or virus in culture; format: cell-based; settings: Mycobacterium tuberculosis, read-out: MIC BDQ values in six carbon sources
Mtb Rv0678 RAVs = test system: Mtb Rv0678 RAVs; design: method as in Sonnenkalb et al., 2023; Villellas et al., 2017; settings: Rv0678 RAVs in baseline isolates of MDR-TB patients; ref Sonnenkalb et al., 2023; Villellas et al., 2017; cited from earlier work
M. tuberculosis = test system: M. tuberculosis; design: method as in Lounis et al. (2016); settings: polypropylene plates in comparison with polystyrene; ref Lounis et al. (2016); cited from earlier work
[5] = concentrations equal or higher than 5x MIC

| SMILES | MIC increase compared to the wild-type baseline [1] [fold] | MIC ([1]; H37RV) [µg/mL] | MIC ([1]; read-out: MIC values for TBAJ-587, all regrowth isolates) [µg/mL] | effect in TKA (Mtb H37Rv [2]; 1x MIC and 2x MIC) | bacterial regrowth (Mtb H37Rv [2]; 1x MIC and 2x MIC, day 28) | bacterial regrowth after 28 days of treatment (Mtb H37Rv [2]; [5]) | time to cleared cultures (bacterial counts under the limit of quantification) (Mtb H37Rv [2]; [5]) [days] | effect in TKA (Mtb H37Rv [2]; concentrations equal to and above 5x MIC) | effect of 0.05% tyloxapol on recovery [3] | MIC (Mtb H37Rv [4]) [µg/mL] | increase in MIC (Mtb Rv0678 RAVs) | increase in the MIC (M. tuberculosis) [fold] |
| --- | --- | --- | --- | --- | --- | --- | --- | --- | --- | --- | --- | --- |
| COc1cc([C@](O)(CCN(C)C)[C@@H](c2cc3cc(Br)ccc3nc2OC)c2cccc(OC)c2F)cc(OC)n1 [TBAJ-587] | 4 | 0.125 (≈ 0.203 µM) | 0.125 to 0.25 (≈ 0.203 to 0.407 µM) | bacteriostatic effect | resumed growth after 28 days; also recorded: bacterial regrowth by day 28 | without bacterial regrowth | ≤ 7 | bactericidal effect | higher TBAJ-587 recovery | – | – | – |
| COc1nc2ccc(Br)cc2cc1[C@@H](c1ccccc1)[C@@](O)(CCN(C)C)c1cccc2ccccc12 [BDQ, bedaquiline] | – | – | – | – | – | – | – | – | – | 0.063 to 0.25 (≈ 0.113 to 0.45 µM) | 2–8 fold | 4 |
| CC(C)NCC(O)COc1cccc2ccccc12 (stereo not shown) [Propranolol, propranolol, reference compound] | – | – | – | – | – | – | – | – | did not affect its recovery | – | – | – |
